The numbers were not newly measured in publication PMC11938273 (Journal of Chemical Information and Modeling, 2025), which cites them from elsewhere.

SMILES strings stand for the structures.

The conditions of the data set: in vivo; cited from earlier work.
Consider `COc1ccc(OC)c(CN(C(C)=O)c2cc(F)ccc2Oc2ccccc2)c1` [DAA1106, N-(2,5-dimethoxybenzyl)-N-(5-fluoro-2-phenoxyphenyl)acetamide], for which the CNS status result is given as “Positive”.

As to `CN(C)Cc1ccccc1Sc1ccc(C#N)cc1N` [DASB, 3-Amino-4-((2-((dimethylamino)methyl)phenyl)thio)benzonitrile], the CNS status entry is given as “Positive”.

Consider `COc1cccc2c1C(=O)c1c(O)c3c(c(O)c1C2=O)C[C@@](O)(C(C)=O)C[C@@H]3O[C@H]1C[C@H](N)[C@H](O)[C@H](C)O1` [Daunorubicin, (1S,3S)-3-Acetyl-3,5,12-trihydroxy-10-methoxy-6,11-dioxo-1,2,3,4,6,11-hexahydro-1-tetracenyl 3-amino-2,3,6-trideoxy-α-L-lyxo-hexopyranoside], for which the CNS status result was “Efflux transporter substrate”.

As for `COc1cccc2c1C(=O)c1c(O)c3c(c(O)c1C2=O)C[C@@](O)(C(=O)CO)C[C@@H]3O[C@H]1C[C@H](N)[C@H](O)[C@H](C)O1` [Doxorubicin, (1S,3S)-3-Glycoloyl-3,5,12-trihydroxy-10-methoxy-6,11-dioxo-1,2,3,4,6,11-hexahydro-1-tetracenyl 3-amino-2,3,6-trideoxy-α-L-lyxo-hexopyranoside], the CNS status result is listed as “Efflux transporter substrate”.

As for `CCN(CC)C(=O)/C(C#N)=C/c1cc(O)c(O)c([N+](=O)[O-])c1` [Entacapone, (2E)-2-Cyano-3-(3,4-dihydroxy-5-nitrophenyl)-N,N-diethylacrylamide], the CNS status entry is given as “Negative”.

In the case of `CCN1CCC[C@H]1CNC(=O)c1cc(I)cc(OC)c1OC` [Epidepride, (S)-N-((1-ethylpyrrolidin-2-yl)methyl)-5-iodo-2,3-dimethoxybenzamide], the CNS status entry is on record as “Positive”.

For `COc1cccc2c1C(=O)c1c(O)c3c(c(O)c1C2=O)C[C@@](O)(C(=O)CO)C[C@@H]3O[C@H]1C[C@H](N)[C@@H](O)[C@H](C)O1` [Epirubicin, (1S,3S)-3-Glycoloyl-3,5,12-trihydroxy-10-methoxy-6,11-dioxo-1,2,3,4,6,11-hexahydro-1-tetracenyl 3-amino-2,3,6-trideoxy-α-L-arabino-hexopyranoside], the CNS status entry was “Efflux transporter substrate”.

Turning to `C#Cc1cccc(Nc2ncnc3cc(OCCOC)c(OCCOC)cc23)c1` [Erlotinib, N-(3-Ethynylphenyl)-6,7-bis(2-methoxyethoxy)-4-quinazolinamine], the CNS status result is “Efflux transporter substrate”.

With `CCOC(=O)c1cncn1[C@H](C)c1ccccc1` [Etomidate, (R)-ethyl 1-(1-phenylethyl)-1H-imidazole-5-carboxylate], the CNS status entry is listed as “Positive”.

With `COc1cc([C@@H]2c3cc4c(cc3[C@@H](O[C@@H]3O[C@@H]5CO[C@@H](C)O[C@H]5[C@H](O)[C@H]3O)[C@H]3COC(=O)[C@H]23)OCO4)cc(OC)c1O` [Etoposide, (5S,5aR,8aR,9R)-9-(4-Hydroxy-3,5-dimethoxyphenyl)-8-oxo-5,5a,6,8,8a,9-hexahydrofuro[3′,4′:6,7]naphtho[2,3-d][1,3]dioxol-5-yl 4,6-O-[(1R)-ethylidene]-β-D-glucopyranoside], the CNS status entry is “Efflux transporter substrate”.

For `Cc1ccc([C@H]2C[C@@H]3CC[C@H]([C@H]2C(=O)OCCF)N3C/C=C/I)cc1` [FE-PE2i, 2-fluoroethyl (1R,2S,3S,5S)-8-((E)-3-iodoallyl)-3-(p-tolyl)-8-azabicyclo[3.2.1]octane-2-carboxylate], the CNS status entry is recorded as “Positive”.

Take `CCSC(=O)c1c(CC)nc(-c2ccccc2)c(C(=O)OCC[18F])c1CC` [FE@SUPPY, 5-(2-[18F]fluoroethyl)2,4-diethyl-3-(ethylsulfanylcarbonyl)-6-phenylpyridine-5-carboxylate]: the CNS status result is reported as “Negative”.

On to `C=CCN1CCC[C@H]1CNC(=O)c1cc(CCCF)cc(OC)c1OC` [Fallypride, (S)-N-((1-allylpyrrolidin-2-yl)methyl)-1-(5-(3-fluoropropyl)-2,3-dimethoxyphenyl)ethenamine], for which the CNS status result was “Positive”.

As for `CN1Cc2c(C(=O)OCCF)ncn2-c2ccc(F)cc2C1=O` [Fluoroethylflumazenil (FFMZ), 2-Fluoroethyl 8-fluoro-5-methyl-6-oxo-5,6-dihydro-4H-benzo [f]imidazo[1,5-a] [1, 4]diazepine-3-carboxylate], the CNS status result is given as “Positive”.

For `O=[N+]([O-])c1nccn1CC(O)CF` (stereo not shown) [Fluoromisonidazole (FMISO), 1-Fluoro-3-(2-nitro-1H-imidazol-1-yl)propan-2-ol], the CNS status result is recorded as “Positive”.

For the compound `CNc1ccc(-c2nc3ccc(O)cc3s2)cc1F` [Flutemetamol, 2-(3-fluoro-4-(methylamino)phenyl)benzo[d]thiazol-6-ol], the CNS status entry was “Positive”.

Regarding `C[C@]12CC[C@@H]3c4ccc(O)cc4C[C@@H](CCCCCCCCC[S+]([O-])CCCC(F)(F)C(F)(F)F)[C@H]3[C@@H]1CC[C@@H]2O` (stereo partly drawn) [Fulvestrant, (7α,17β)-7-{9-[(4,4,5,5,5-Pentafluoropentyl)sulfinyl]nonyl}estra-1(10),2,4-triene-3,17-diol], the CNS status entry is on record as “Negative”.

On to `COC(=O)N1CCN(C(=O)Cc2ccc(Cl)c(Cl)c2)[C@H](CN2CCCC2)C1` [GR89696, (R)-methyl 4-(2-(3,4-dichlorophenyl)acetyl)-3-(pyrrolidin-1-ylmethyl)piperazine-1-carboxylate], for which the CNS status result is on record as “Positive”.

For `CCC1=C(C)CN(C(=O)NCCc2ccc(S(=O)(=O)NC(=O)N[C@H]3CC[C@H](C)CC3)cc2)C1=O` [Glimepiride, 3-Ethyl-4-methyl-N-[2-(4-{[(trans-4-methylcyclohexyl)carbamoyl]sulfamoyl}phenyl)ethyl]-2-oxo-2,5-dihydro-1H-pyrrole-1-carboxamide], the CNS status entry was “Negative”.

As to `CCOc1ccc(-c2nc3cc(-c4nc5cc(N6CCN(C)CC6)ccc5[nH]4)ccc3[nH]2)cc1` [Hoechst 33342, 2′-(4-Ethoxyphenyl)-5-(4-methyl-1-piperazinyl)-1H,1′H-2,5′-bibenzimidazole], the CNS status result is listed as “Efflux transporter substrate”.

Take `COC(=O)[C@H]1[C@@H](c2ccc(I)cc2)C[C@@H]2CC[C@H]1N2C/C=C/I` [IPCIT, (1R,2S,3S,5S)-methyl 8-((E)-3-iodoallyl)-3-(4-iodophenyl)-8-azabicyclo[3.2.1]octane-2-carboxylate]: the CNS status entry is “Positive”.

As for `CCC(C)n1ncn(-c2ccc(N3CCN(c4ccc(OC[C@H]5CO[C@](Cn6cncn6)(c6ccc(Cl)cc6Cl)O5)cc4)CC3)cc2)c1=O` (stereo partly drawn) [Itraconazole, 2-sec-Butyl-4-{4-[4-(4-{[(2R,4S)-2-(2,4-dichlorophenyl)-2-(1H-1,2,4-triazol-1-ylmethyl)-1,3-dioxolan-4-yl]methoxy}phenyl)-1-piperazinyl]phenyl}-2,4-dihydro-3H-1,2,4-triazol-3-one], the CNS status result is recorded as “Negative”.

Regarding `COC(=O)c1cnc2n1CCc1ccccc1C2=C1CCN(CCc2ccc(OCc3ccc4ccccc4n3)cc2)CC1` [Laniquidar, methyl 11-(1-(4-(quinolin-2-ylmethoxy)phenethyl)piperidin-4-ylidene)-6,11-dihydro-5H-benzo[d]imidazo[1,2-a]azepine-3-carboxylate], the CNS status entry is given as “Efflux transporter substrate”.

Take `CC#CCn1c(N2CCC[C@@H](N)C2)nc2c1c(=O)n(Cc1nc(C)c3ccccc3n1)c(=O)n2C` [Linagliptin, 8-(3-Amino-1-piperidinyl)-7-(2-butyn-1-yl)-3-methyl-1-[(4-methyl-2-quinazolinyl)methyl]-3,7-dihydro-1H-purine-2,6-dione]: the CNS status entry is given as “Negative”.

Turning to `CNCC(O)CCN1c2ccccc2N(c2ccccc2)S1(=O)=O` (stereo not shown) [Me@HAPTHI, 4-(2,2-Dioxido-3-phenyl-2,1,3-benzothiadiazol-1(3H)-yl)-1-(methylamino)-2-butanol], the CNS status result was “Negative”.

On to `O=S(=O)(O)CCS` [Mesna (Coenzyme M), 2-mercaptoethane sulfonic acid], for which the CNS status result is on record as “Negative”.

On to `COC(=O)c1cncn1[C@H](C)c1ccccc1` [Metomidate, (R)-methyl 1-(1-phenylethyl)-1H-imidazole-5-carboxylate], for which the CNS status result was “Positive”.

Consider `Cn1c2c(c3ccccc31)C[C@@]1(O)C3Cc4ccc(O)c5c4C1(CCN3CC1CC1)[C@H]2O5` (stereo partly drawn) [N-Methylnaltrinidole, (8aS,14bR)-7-(cyclopropylmethyl)-14-methyl-5,6,7,8,8a,9,14, 14b-octahydro-4,8-methanobenzofuro[2,3-a]pyrido [4,3-b]carbazole-1,8a-diol], for which the CNS status result was “Positive”.

`Cc1c(O)cccc1C(=O)N[C@@H](CSc1ccccc1)[C@H](O)CN1C[C@H]2CCCC[C@H]2C[C@H]1C(=O)NC(C)(C)C` [Nelfinavir, (3S,4aS,8aS)-2-[(2R,3R)-2-Hydroxy-3-[(3-hydroxy-2-methylbenzoyl)amino]-4-(phenylsulfanyl)butyl]-N-(2-methyl-2-propanyl)decahydro3-isoquinolinecarboxamide]: the CNS status result is on record as “Efflux transporter substrate”.

With `CN(C)C(=O)Oc1cccc([N+](C)(C)C)c1` [Neostigmine, 3-[(Dimethylcarbamoyl)oxy]-N,N,N-trimethylanilinium], the CNS status result was “Negative”.

For `COC(=O)C1=C(C)NC(C)=C(C(=O)OCCN(C)Cc2ccccc2)C1c1cccc([N+](=O)[O-])c1` (stereo not shown) [Nicardipine, 2-[Benzyl(methyl)amino]ethyl methyl 2,6-dimethyl-4-(3-nitrophenyl)-1,4-dihydro-3,5-pyridinedicarboxylate], the CNS status entry is recorded as “Efflux transporter substrate”.

Take `Fc1ncccc1OCC1C=CCN1` (stereo not shown) [Nifene, 3-((2,5-dihydro-1H-pyrrol-2-yl)methoxy)-2-fluoropyridine]: the CNS status result is listed as “Positive”.

As to `Cc1nccn1CC1CCc2c(c3ccccc3n2C)C1=O` (stereo not shown) [Ondansetron, 9-Methyl-3-[(2-methyl-1H-imidazol-1-yl)methyl]-1,2,3,9-tetrahydro-4H-carbazol-4-one], the CNS status result is “Efflux transporter substrate”.

For the compound `COC(=O)[C@H]1[C@@H](c2ccc(C)cc2)C[C@@H]2CC[C@H]1N2C/C=C/I` [PE2i, (1R,2S,3S,5S)-methyl 8-((E)-3-iodoallyl)-3-(p-tolyl)-8-azabicyclo[3.2.1]octane-2-carboxylate], the CNS status result is “Positive”.
